# Results as given in patent publication US20080318957A1, “POLYBASIC BACTERIAL EFFLUX PUMP INHIBITORS AND THERAPEUTIC USES THEREOF” (priority 2007, published 2008).
# Tested on: strain of P. aeruginosa, PAM1723, overexpressing the MexAB-OprM efflux pump
# Assay: checkerboard assay, levofloxacin potentiating activity (broth microdilution)
# Type: cell-based
# Settings: lowest inhibitor concentration giving antibacterial activity with levofloxacin at 1/32 of its MIC; MHB, 20 h, 35° C.
# Protocol: All EPI compounds were readily soluble in water and stock solutions were prepared at a final concentration of 10 mg/ml. Stock solutions were further diluted, according to the needs of the particular assay, in Mueller Hinton Broth (MHB). Stock solution was stored at −80° C.
# The checkerboard assay was performed in microtiter plates. […] EPIs were diluted in the y-axis, each row containing a single concentration of an EPI. The result of these manipulations was that each well of the microtiter plate contained a unique combination of concentrations of the two agents. The assay was performed in MHB with a final bacterial inoculum of 5 times 10^5 CFU/ml (from an early-log phase culture). Microtiter plates were incubated during 20 h at 35° C. and were read using a microtiterplate reader (Molecular Devices) at 650 nm as well as visual observation using a microtiter plate-reading mirror.
row,SMILES,MPC32 (Minimum Potentiating Concentration)
1,"NCCN(CCN)C(=O)CC[C@H](N)C(=O)N/C(=C/c1ccc(C(F)(F)F)cc1)C(=O)Nc1cnc2ccccc2c1 [Compound 4, 3-[(1S)-3-[bis(2-azaniumylethyl)carbamoyl]-1-{[(1E)-1-carbamoyl-2-[4-(trifluoromethyl)phenyl]eth-1-en-1-yl]carbamoyl}propan-1-aminium]quinolin-1-ium tetrachloride]",2.5 µg/mL
2,"CN(C(=O)[C@@H](N)CCC(=O)N(CCN)CCN)[C@@H](Cc1ccc(C(F)(F)F)cc1)C(=O)Nc1cnc2ccccc2c1 [Compound 5, 3-[(1S)-3-[bis(2-azaniumylethyl)carbamoyl]-1-{[(1S)-1-carbamoyl-2-[4-(trifluoromethyl)phenyl]ethyl](methyl)carbamoyl}propan-1-aminium]quinolin-1-ium tetrachloride]",>10 µg/mL
3,"NCCN(CCN)C(=O)CC[C@H](N)C(=O)N[C@H](C(=O)Nc1cnc2ccccc2c1)[C@H](O)c1ccc(C(F)(F)F)cc1 [Compound 3, 3-[(1S)-3-[bis(2-azaniumylethyl)carbamoyl]-1-{[(1S,2R)-1-carbamoyl-2-hydroxy-2-[4-(trifluoromethyl)phenyl]ethyl]carbamoyl]propan-1-aminium]quinolin-1-ium tetrachloride]",>10 µg/mL
4,NCCN(CCN)C(=O)C[C@H](N)C(=O)N[C@@H](CCc1ccccc1)C(=O)Nc1cnc2ccccc2c1 [Compound 2],5 µg/mL
5,"NCCN(CCN)C(=O)CC[C@H](N)C(=O)N[C@H](Cc1ccc(C(F)(F)F)cc1)C(=O)Nc1cnc2ccccc2c1 [Compound 1, 3-[(1S)-3-[bis(2-azaniumylethyl)carbamoyl]-1-{[(1R)-1-carbamoyl-2-[4-(trifluoromethyl)phenyl]ethyl]carbamoyl}propan-1-aminium]quinolin-1-ium tetrachloride]",0.6 µg/mL
